Test results reported in patent publication US20120301478A1, “Pharmaceutical for Preventing or Treating Disorders Accompanied by Ocular Angiogenesis and/or Elevated Ocular Vascular Permeability” (priority 2010, published 2012).

Assays:
[1] = injected in the vitreous body of a human; cited from earlier work
[2] = system: choroidal neovascularization (CNV) model, increased vascular permeability; assay: Laser-induced CNV mouse model, fluorescein-fluorescent fundus angiography, vascular permeability (Experiment 2); type: in vivo; settings: fidarestat forced oral 16 mg/kg twice a day (32 mg/kg/day); 7 days after laser irradiation
Experimental: An anti-VEGF antibody and/or fidarestat were administered to a mouse that had been treated to induce CNV in a similar manner to that in Experiment 1. […] The number of examples was three or four per a group, and the following five groups were set. […] The both eyes were photographed by an eye-fundus camera, and the obtained eye-ground picture was evaluated in a blinded manner according to the following criteria. • grade 0: nonleaky, no leakage from blood-vessel • grade 1: questionable leakage, weak leakage was observed • grade 2: leaky, leakage was observed • grade 3: pathologically significant leakage, clear leakage was observed on wide area The ratio of the number of the FA grade 3 lesions (%) in each eye was calculated, and the average value of the calculated rates in each group was obtained. […]

[3] = system: choroidal neovascularization (CNV) model; assay: Laser-induced choroidal neovascularization (CNV) mouse model, CNV volume (Experiment 1); type: in vivo, mouse (male C57BL/6J)
Text: In the CNV model, macrophages migrate by the initiation of an inflammation by laser irradiation. Since VEGF are produced, neovascular vessels are generated, and increased vascular permeability is observed as the result thereof, the CNV model is one of models that produce VEGF. […] The both eyes of a male C57BL/6J mice having a body weight of about 20 g (6-week old) were irradiated with laser (irradiated by 4 to 6 spots per one eye) to induce CNV experimentally. As mentioned below, an anti-VEGF antibody and/or fidarestat were administered as a drug. […] As the anti-VEGF antibody, an anti-mouse VEGF antibody purchased from R&D Systems was used. The number of examples was three or four per a group, and the following four groups were set. […] After completion of the laser irradiation, the mice were bred by general breeding for 7 days, and thereafter the eye balls were excised and the volume of CNV appeared in the choroid was measured. […] The volume of CNV was measured by importing an image in the vicinity of CNV by a confocal laser microscope (Zeiss LSM5 Pascal) and using image analysis software (NIH Image J). […]

STZ-diabetic rat retina = settings: streptozotocin (STZ)-diabetic rat, cited from earlier work

Compound	disappearing half-life [1] [h]	ratio of the number of the FA grade 3 lesions [2]	dose at which the maximum medicinal effect is shown ([3]; CNV mouse model, fidarestat) [mg/kg/day]	effect of suppressing CNV (CNV volume) compared to the untreated group ([3]; fidarestat 32 mg/kg/day in powder feedstuff, from 2 days before to 7 days after laser irradiation)	overexpression of VEGF (STZ-diabetic rat retina; retina)	retinal oxidative stress (STZ-diabetic rat retina)
ranibizumab: typical anti-VEGF agent, anti-VEGF antibody used as intravitreal injection	220					
NC(=O)[C@@H]1C[C@]2(NC(=O)NC2=O)c2cc(F)ccc2O1 [fidarestat, (2S,4S)-6-fluoro-2′,5′-dioxospiro[chroman-4,4′-imidazolidine]-2-carboxamide]		approximately the same rate as that in the 2 ng anti-VEGF antibody-administered group	32	significant effect of suppressing CNV was observed (p<0.05)	suppresses	suppresses
